This note sets out measurements from patent US6830894B1, “Compounds and methods for modulating claudin-mediated functions” (Adherex Technologies, Inc., priority 1998, dated 2004).

This experiment relates to MDCK cell monolayers. Briefly: Electrical resistance across MDCK cell monolayer. Type of experiment: cell-based, canine. How it is done: Yet another assay evaluates the effect of a modulating agent on the electrical resistance across a monolayer of cells. For example, Madin Darby canine kidney (MDCK) cells can be exposed to the modulating agent dissolved in medium (e.g., at a final concentration of 0.5 mg/ml for a period of 24 hours). The effect on electrical resistance can be measured using standard techniques. This assay evaluates the effect of a modulating agent on tight junction formation in epithelial cells. In general, the presence of 500 μg/mL modulating agent should result in a statistically significant decrease in electrical resistance after 24 hours.
Madin Darby canine kidney (MDCK) cells were plated in Millicells (Millipore, Bedford, Mass.), at a density of 300,000 cells per Millicell, and cultured in Dulbecco's Modified Eagle Medium (DMEM; Sigma, St. Louis, Mo.) containing 5% fetal calf serum (Sigma, St. Louis, Mo.) until monolayers formed. Monolayers were exposed to the modulating agent dissolved in medium. The electrical resistance was measured using the EVOM device (World Precision Instruments, Sarasota, Fla.). At the time of measurement, fresh medium, with or without the modulating agent, may be added to the Millicells.

[1] abbreviates: cultured for 18 hours, peptide at 0.5 mg/ml, relative to medium alone (Control), FIG. 3.

Regarding H-WKIYSYAGDN-NH2 [Peptide 119], the “mean electrical resistance across MDCK cell monolayers” value under setting [1] is recorded as “did not change the electrical resistance across the monolayer relative to the control”.

Turning to N—Ac-WKIYSYAGDN-NH2 [Peptide 118], the “mean electrical resistance across MDCK cell monolayers” value was “reduced the electrical resistance across the monolayer” under setting [1] and “reduced the electrical resistance across the monolayer in a dose dependent manner” (cultured for 24 hours, peptide at various concentrations, versus medium alone (Control), FIG. 4).
